ChEMBL document CHEMBL3991601, “The target landscape of clinical kinase drugs” (Science, 2017)
Calls of active or inactive are those of the source.

What was measured:
[1] = target: Actin-related protein 2 (Homo sapiens, UniProt P61160)
[2] = target: Serine/threonine-protein kinase MRCK alpha (Homo sapiens, UniProt Q5VT25)
[3] = target: Casein kinase I isoform delta (Homo sapiens, UniProt P48730)
[4] = target: T1, Inhibitor of nuclear factor kappa-B kinase subunit epsilon (Homo sapiens, UniProt Q14164)
T1 sequence (Q14164 whole entry): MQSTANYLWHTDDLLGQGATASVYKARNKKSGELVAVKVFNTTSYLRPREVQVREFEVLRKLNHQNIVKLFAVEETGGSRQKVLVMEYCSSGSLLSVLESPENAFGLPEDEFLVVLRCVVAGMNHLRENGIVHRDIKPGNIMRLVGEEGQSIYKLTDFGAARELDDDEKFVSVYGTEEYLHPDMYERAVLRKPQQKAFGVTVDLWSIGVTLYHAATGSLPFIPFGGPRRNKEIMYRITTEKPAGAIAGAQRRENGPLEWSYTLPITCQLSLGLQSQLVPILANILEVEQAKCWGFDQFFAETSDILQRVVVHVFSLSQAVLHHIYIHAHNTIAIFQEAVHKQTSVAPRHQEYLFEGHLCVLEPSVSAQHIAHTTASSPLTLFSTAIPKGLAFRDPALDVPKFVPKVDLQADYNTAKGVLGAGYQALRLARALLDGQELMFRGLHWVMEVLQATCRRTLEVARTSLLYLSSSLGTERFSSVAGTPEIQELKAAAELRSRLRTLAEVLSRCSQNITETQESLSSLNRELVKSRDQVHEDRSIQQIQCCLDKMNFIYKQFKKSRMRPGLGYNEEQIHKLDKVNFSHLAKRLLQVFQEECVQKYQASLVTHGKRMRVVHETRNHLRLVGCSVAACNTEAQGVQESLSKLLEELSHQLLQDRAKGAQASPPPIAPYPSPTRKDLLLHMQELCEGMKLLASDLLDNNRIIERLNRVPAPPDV

[5] = target: T2, Scaffold protein ILK (Homo sapiens, UniProt Q13418)
T2 sequence (Q13418 whole entry): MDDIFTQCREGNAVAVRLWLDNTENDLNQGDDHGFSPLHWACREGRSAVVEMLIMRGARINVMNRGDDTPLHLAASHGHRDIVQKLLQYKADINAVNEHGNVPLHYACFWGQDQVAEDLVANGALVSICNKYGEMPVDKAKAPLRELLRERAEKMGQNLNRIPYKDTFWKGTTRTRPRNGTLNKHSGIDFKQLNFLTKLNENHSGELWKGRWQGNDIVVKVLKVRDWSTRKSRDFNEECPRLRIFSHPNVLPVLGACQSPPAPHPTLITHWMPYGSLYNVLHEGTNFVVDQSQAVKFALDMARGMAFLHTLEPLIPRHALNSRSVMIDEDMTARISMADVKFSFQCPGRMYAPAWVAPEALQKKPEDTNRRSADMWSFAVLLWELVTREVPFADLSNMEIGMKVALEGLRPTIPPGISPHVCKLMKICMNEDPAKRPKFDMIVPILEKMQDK

[6] = target: Tyrosine-protein kinase JAK1 (Homo sapiens, UniProt P23458)
[7] = target: T3, DNA replication licensing factor MCM4 (Homo sapiens, UniProt P33991)
T3 sequence (P33991 whole entry): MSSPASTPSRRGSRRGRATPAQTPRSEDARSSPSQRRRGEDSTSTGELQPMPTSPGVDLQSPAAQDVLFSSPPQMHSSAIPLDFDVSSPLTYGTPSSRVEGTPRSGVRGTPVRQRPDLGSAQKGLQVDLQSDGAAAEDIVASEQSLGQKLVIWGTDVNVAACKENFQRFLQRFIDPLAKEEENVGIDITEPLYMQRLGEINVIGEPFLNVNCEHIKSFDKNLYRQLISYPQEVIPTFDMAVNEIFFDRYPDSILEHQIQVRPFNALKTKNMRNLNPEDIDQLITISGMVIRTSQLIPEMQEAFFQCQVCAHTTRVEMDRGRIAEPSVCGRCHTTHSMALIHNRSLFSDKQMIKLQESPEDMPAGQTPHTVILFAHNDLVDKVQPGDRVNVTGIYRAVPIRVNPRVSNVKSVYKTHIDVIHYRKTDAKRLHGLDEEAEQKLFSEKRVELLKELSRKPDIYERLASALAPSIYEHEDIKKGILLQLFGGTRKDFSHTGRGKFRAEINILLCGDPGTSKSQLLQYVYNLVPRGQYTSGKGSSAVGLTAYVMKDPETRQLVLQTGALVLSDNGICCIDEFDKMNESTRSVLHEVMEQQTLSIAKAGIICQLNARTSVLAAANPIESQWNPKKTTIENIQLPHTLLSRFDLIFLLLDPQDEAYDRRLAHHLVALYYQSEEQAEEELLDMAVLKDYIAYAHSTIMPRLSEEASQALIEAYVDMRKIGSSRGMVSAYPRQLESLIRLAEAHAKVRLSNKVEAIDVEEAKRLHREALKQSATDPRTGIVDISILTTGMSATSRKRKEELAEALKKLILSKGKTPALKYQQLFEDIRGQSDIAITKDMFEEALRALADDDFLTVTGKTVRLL

[8] = target: cAMP-dependent protein kinase type II-alpha regulatory subunit (Homo sapiens, UniProt P13861)
Sequence of cAMP-dependent protein kinase type II-alpha regulatory subunit (P13861 whole entry): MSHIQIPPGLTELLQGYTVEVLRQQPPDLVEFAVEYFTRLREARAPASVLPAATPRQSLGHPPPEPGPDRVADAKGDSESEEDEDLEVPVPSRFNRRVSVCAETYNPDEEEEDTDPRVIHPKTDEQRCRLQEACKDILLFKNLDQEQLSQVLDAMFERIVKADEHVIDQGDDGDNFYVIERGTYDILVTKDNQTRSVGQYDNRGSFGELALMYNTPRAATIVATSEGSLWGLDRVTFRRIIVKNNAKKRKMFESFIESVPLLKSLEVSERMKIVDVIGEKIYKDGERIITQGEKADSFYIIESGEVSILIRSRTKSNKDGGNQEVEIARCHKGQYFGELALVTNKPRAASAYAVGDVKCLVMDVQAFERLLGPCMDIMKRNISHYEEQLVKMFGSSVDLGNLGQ

[9] = target: Protein kinase C beta type (Homo sapiens, UniProt P05771)
Sequence of Protein kinase C beta type (P05771 whole entry): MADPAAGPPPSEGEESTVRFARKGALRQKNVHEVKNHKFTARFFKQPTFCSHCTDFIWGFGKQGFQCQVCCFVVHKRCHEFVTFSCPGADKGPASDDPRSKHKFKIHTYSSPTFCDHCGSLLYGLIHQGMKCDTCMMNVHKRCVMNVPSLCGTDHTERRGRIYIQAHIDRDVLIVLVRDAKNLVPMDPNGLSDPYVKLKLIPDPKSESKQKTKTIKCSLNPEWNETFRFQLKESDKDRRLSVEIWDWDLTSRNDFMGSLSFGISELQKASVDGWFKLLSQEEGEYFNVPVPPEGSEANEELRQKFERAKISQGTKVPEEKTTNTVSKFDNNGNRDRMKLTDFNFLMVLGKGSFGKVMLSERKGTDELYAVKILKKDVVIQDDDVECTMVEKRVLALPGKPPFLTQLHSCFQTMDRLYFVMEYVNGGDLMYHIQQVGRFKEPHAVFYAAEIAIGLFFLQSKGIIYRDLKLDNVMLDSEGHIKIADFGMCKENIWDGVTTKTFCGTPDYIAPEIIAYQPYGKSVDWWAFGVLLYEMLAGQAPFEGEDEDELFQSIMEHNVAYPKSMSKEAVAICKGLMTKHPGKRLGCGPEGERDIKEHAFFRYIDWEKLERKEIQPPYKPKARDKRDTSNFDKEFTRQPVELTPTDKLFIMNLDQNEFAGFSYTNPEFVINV

[10] = target: 26S proteasome regulatory subunit 6B (Homo sapiens, UniProt P43686)
Sequence of 26S proteasome regulatory subunit 6B (P43686 whole entry): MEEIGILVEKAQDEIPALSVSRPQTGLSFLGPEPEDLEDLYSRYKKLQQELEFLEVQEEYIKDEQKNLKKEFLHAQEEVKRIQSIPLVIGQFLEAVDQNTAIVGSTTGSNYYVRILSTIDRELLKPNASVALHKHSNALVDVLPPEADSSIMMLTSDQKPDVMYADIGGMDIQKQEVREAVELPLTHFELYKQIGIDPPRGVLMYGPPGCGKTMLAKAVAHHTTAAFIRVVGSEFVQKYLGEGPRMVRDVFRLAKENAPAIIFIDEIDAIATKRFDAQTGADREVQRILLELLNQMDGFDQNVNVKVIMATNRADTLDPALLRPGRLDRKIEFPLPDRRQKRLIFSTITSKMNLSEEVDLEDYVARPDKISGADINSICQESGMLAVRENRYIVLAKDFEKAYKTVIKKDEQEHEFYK

[11] = target: Serine/threonine-protein kinase 10 (Homo sapiens, UniProt O94804)
Sequence of Serine/threonine-protein kinase 10 (O94804 whole entry): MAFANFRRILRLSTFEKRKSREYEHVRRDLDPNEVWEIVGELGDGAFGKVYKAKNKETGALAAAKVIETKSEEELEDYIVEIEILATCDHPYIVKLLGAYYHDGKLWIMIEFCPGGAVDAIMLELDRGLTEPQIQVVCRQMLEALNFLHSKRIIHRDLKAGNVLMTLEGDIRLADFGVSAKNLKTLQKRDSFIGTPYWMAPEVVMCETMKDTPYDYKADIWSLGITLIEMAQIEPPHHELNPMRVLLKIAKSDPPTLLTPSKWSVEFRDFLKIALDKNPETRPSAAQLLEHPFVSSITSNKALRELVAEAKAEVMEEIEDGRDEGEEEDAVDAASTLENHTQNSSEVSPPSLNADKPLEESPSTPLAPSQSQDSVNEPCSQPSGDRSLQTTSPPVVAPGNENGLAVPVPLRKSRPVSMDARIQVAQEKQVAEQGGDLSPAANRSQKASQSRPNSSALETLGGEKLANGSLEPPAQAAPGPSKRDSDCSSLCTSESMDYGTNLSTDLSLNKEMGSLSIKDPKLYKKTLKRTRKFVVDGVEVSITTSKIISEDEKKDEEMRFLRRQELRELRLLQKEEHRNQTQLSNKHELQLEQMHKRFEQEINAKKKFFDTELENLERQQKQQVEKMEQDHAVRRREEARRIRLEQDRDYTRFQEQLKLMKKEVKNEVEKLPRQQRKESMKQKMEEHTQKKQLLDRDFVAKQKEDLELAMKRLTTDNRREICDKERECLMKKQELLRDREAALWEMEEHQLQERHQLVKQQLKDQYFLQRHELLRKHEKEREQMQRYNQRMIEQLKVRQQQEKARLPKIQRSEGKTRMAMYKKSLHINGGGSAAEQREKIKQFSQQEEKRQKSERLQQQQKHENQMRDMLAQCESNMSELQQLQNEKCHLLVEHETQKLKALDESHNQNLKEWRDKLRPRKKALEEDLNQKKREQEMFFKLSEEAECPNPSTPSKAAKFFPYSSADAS

[12] = target: T4, EKC/KEOPS complex subunit TP53RK (Homo sapiens, UniProt Q96S44)
T4 sequence (Q96S44 whole entry): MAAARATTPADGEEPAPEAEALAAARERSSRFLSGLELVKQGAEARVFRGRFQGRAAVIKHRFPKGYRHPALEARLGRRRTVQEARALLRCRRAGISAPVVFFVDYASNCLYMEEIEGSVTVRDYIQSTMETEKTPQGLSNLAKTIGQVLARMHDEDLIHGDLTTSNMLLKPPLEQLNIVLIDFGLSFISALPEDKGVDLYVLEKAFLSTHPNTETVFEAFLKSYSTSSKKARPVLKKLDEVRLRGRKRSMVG
Further: in the data inactive means no Kd found up to 30 µM.

Sequence of Serine/threonine-protein kinase MRCK alpha (Q5VT25 whole entry, canonical isoform): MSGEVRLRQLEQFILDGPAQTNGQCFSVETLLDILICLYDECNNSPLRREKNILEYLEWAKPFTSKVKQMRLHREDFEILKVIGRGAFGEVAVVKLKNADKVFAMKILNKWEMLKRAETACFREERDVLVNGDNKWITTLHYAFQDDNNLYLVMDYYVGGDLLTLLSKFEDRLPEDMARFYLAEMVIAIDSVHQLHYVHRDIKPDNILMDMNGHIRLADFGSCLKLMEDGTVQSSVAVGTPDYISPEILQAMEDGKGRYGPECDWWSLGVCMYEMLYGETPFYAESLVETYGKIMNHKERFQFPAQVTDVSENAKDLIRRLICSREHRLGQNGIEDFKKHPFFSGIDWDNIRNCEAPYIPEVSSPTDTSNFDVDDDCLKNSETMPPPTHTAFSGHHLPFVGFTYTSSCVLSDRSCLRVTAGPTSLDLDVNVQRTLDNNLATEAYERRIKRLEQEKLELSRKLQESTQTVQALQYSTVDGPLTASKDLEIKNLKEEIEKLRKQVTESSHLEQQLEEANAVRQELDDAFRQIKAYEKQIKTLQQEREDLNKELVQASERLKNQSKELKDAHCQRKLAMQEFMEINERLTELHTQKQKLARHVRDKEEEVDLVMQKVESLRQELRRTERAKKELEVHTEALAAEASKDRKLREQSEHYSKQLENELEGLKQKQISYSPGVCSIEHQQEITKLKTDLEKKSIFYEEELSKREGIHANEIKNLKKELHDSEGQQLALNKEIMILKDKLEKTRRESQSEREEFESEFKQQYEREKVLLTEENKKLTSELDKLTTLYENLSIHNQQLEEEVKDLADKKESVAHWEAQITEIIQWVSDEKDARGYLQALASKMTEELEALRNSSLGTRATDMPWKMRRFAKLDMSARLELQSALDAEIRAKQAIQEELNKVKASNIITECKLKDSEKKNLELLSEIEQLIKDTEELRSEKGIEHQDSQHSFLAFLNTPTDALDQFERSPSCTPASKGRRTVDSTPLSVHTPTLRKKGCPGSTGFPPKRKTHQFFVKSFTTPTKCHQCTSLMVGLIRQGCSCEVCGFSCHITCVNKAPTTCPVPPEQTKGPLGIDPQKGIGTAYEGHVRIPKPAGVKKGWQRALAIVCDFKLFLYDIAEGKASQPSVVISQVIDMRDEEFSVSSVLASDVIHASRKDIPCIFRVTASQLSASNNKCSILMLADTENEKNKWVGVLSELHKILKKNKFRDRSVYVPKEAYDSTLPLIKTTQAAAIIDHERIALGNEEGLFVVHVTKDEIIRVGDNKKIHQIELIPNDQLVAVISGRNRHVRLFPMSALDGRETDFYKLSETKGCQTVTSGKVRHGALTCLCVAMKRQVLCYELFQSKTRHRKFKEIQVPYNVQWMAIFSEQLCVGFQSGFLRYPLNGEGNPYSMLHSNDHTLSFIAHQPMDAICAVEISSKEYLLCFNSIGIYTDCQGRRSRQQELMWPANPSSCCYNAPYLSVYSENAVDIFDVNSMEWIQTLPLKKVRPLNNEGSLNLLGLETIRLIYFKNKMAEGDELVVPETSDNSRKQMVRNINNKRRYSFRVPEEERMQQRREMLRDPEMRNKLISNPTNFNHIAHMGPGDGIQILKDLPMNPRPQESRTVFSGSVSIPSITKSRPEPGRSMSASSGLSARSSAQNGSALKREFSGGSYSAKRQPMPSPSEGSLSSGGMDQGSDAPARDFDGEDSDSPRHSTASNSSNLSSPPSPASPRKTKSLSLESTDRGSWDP
Sequence of Casein kinase I isoform delta (P48730 whole entry, canonical isoform): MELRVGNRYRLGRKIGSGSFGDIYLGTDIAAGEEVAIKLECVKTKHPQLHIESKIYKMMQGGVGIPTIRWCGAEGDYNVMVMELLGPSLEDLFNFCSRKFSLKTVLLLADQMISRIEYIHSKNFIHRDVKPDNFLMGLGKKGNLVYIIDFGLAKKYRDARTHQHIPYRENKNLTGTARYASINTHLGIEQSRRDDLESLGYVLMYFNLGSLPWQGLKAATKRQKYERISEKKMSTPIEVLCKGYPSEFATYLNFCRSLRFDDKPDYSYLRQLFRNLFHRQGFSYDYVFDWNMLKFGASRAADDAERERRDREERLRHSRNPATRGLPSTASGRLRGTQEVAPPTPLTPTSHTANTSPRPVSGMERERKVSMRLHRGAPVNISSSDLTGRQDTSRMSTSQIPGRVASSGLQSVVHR

| SMILES | Kd [1] | Kd [2] | Kd [3] | Kd [4] | Kd [5] | Kd [6] | Kd [7] | Kd [8] | Kd [9] | Kd [10] | Kd [11] | Kd [12] |
| --- | --- | --- | --- | --- | --- | --- | --- | --- | --- | --- | --- | --- |
| Cc1cccc(-c2nn3c(c2-c2ccnc4ccc(C(N)=O)cc24)CCC3)n1 [GALUNISERTIB] | > 30 µM (inactive) | > 30 µM (inactive) | 16.1 µM (active) | > 30 µM (inactive) | > 30 µM (inactive) | > 30 µM (inactive) | > 30 µM (inactive) | > 30 µM (inactive) | > 30 µM (inactive) | > 30 µM (inactive) | > 30 µM (inactive) | > 30 µM (inactive) |
| CNC(=O)c1cccc2cc(Oc3ccnc4cc(OCC5(N)CC5)c(OC)cc34)ccc12 [LUCITANIB] | > 30 µM (inactive) | > 30 µM (inactive) | > 30 µM (inactive) | > 30 µM (inactive) | > 30 µM (inactive) | > 30 µM (inactive) | > 30 µM (inactive) | > 30 µM (inactive) | > 30 µM (inactive) | > 30 µM (inactive) | > 30 µM (inactive) | > 30 µM (inactive) |
| FC(F)(F)c1ccc(/C=C/c2nc(COc3ccc(CCCCn4ccnn4)cc3)co2)cc1 [MUBRITINIB] | > 30 µM (inactive) | > 30 µM (inactive) | > 30 µM (inactive) | > 30 µM (inactive) | > 30 µM (inactive) | > 30 µM (inactive) | > 30 µM (inactive) | > 30 µM (inactive) | > 30 µM (inactive) | > 30 µM (inactive) | > 30 µM (inactive) | > 30 µM (inactive) |
| COc1ncc(-c2ccc3nccc(-c4ccnnc4)c3c2)cc1NS(=O)(=O)c1ccc(F)cc1F [OMIPALISIB] | > 30 µM (inactive) | > 30 µM (inactive) | > 30 µM (inactive) | > 30 µM (inactive) | > 30 µM (inactive) | > 30 µM (inactive) | > 30 µM (inactive) | > 30 µM (inactive) | > 30 µM (inactive) | > 30 µM (inactive) | > 30 µM (inactive) | > 30 µM (inactive) |
| Cc1cnc(NC(=O)Nc2cc(Br)c(C)cc2OC[C@@H]2CNCCO2)cn1 [RABUSERTIB] | > 30 µM (inactive) | > 30 µM (inactive) | > 30 µM (inactive) | > 30 µM (inactive) | > 30 µM (inactive) | > 30 µM (inactive) | > 30 µM (inactive) | > 30 µM (inactive) | > 30 µM (inactive) | > 30 µM (inactive) | > 30 µM (inactive) | > 30 µM (inactive) |
| CO[C@H]1C[C@@H]2CC[C@@H](C)[C@@](O)(O2)C(=O)C(=O)N2CCCC[C@H]2C(=O)O[C@H]([C@H](C)C[C@@H]2CC[C@@H](OP(C)(C)=O)[C@H](OC)C2)CC(=O)[C@H](C)/C=C(\C)[C@@H](O)[C@@H](OC)C(=O)[C@H](C)C[C@H](C)/C=C/C=C/C=C/1C [RIDAFOROLIMUS] | > 30 µM (inactive) | > 30 µM (inactive) | > 30 µM (inactive) | > 30 µM (inactive) | > 30 µM (inactive) | > 30 µM (inactive) | > 30 µM (inactive) | > 30 µM (inactive) | > 30 µM (inactive) | > 30 µM (inactive) | > 30 µM (inactive) | > 30 µM (inactive) |
| N#CC1(c2ccc(NC(=O)c3cccnc3NCc3ccncc3)cc2)CCCC1 [RIVOCERANIB] | > 30 µM (inactive) | > 30 µM (inactive) | > 30 µM (inactive) | > 30 µM (inactive) | > 30 µM (inactive) | > 30 µM (inactive) | > 30 µM (inactive) | > 30 µM (inactive) | > 30 µM (inactive) | > 30 µM (inactive) | > 30 µM (inactive) | > 30 µM (inactive) |
| O=c1[nH]ccc2cc(OC3CCNCC3)ccc12 [SAR-407899 FREE BASE] | > 30 µM (inactive) | 0.01 µM (active) | > 30 µM (inactive) | > 30 µM (inactive) | > 30 µM (inactive) | > 30 µM (inactive) | > 30 µM (inactive) | > 30 µM (inactive) | > 30 µM (inactive) | > 30 µM (inactive) | > 30 µM (inactive) | > 30 µM (inactive) |
| CN1CCN(CCOc2cc(OC3CCOCC3)c3c(Nc4c(Cl)ccc5c4OCO5)ncnc3c2)CC1 [SARACATINIB] | > 30 µM (inactive) | > 30 µM (inactive) | > 30 µM (inactive) | > 30 µM (inactive) | > 30 µM (inactive) | > 30 µM (inactive) | > 30 µM (inactive) | > 30 µM (inactive) | > 30 µM (inactive) | > 30 µM (inactive) | 11.7 µM (active) | > 30 µM (inactive) |

Continued, values first:

| Kd [1] | Kd [2] | Kd [3] | Kd [4] | Kd [5] | Kd [6] | Kd [7] | Kd [8] | Kd [9] | Kd [10] | Kd [11] | Kd [12] | SMILES |
| --- | --- | --- | --- | --- | --- | --- | --- | --- | --- | --- | --- | --- |
| > 30 µM (inactive) | > 30 µM (inactive) | > 30 µM (inactive) | > 30 µM (inactive) | > 30 µM (inactive) | > 30 µM (inactive) | > 30 µM (inactive) | > 30 µM (inactive) | > 30 µM (inactive) | > 30 µM (inactive) | > 30 µM (inactive) | > 30 µM (inactive) | NC1(c2ccc(-c3nc4ccn5c(=O)[nH]nc5c4cc3-c3ccccc3)cc2)CCC1 [MK-2206] |
| > 30 µM (inactive) | > 30 µM (inactive) | > 30 µM (inactive) | > 30 µM (inactive) | > 30 µM (inactive) | > 30 µM (inactive) | > 30 µM (inactive) | > 30 µM (inactive) | > 30 µM (inactive) | > 30 µM (inactive) | > 30 µM (inactive) | > 30 µM (inactive) | CN(C[C@@H]1COCCO1)S(=O)(=O)Nc1ccc2ccc3ncc(-c4cnn(C)c4)cc3c(=O)c2c1 [MK-2461] |
| > 30 µM (inactive) | > 30 µM (inactive) | > 30 µM (inactive) | > 30 µM (inactive) | > 30 µM (inactive) | > 30 µM (inactive) | > 30 µM (inactive) | > 30 µM (inactive) | > 30 µM (inactive) | > 30 µM (inactive) | > 30 µM (inactive) | > 30 µM (inactive) | Cn1cc(-c2cnc3ccc4ccc(CS(=O)(=O)NCc5ccccn5)cc4c(=O)c3c2)cn1 [MK-8033] |
